Data published in the NIST ThermoML archive (doi:10.1016/j.jct.2019.02.011).

Experiments:
[1] = Liquid, Vibrating tube method
[2] = xn = mol fraction of the nth substance listed; conditions: Liquid, Vibrating tube method, x2 = 0

COC(=O)OC [dimethyl carbonate]
mass density [kg/m3], [1]
Conditions | 100 kPa | 5000 kPa | 10000 kPa | 15000 kPa | 20000 kPa | 25000 kPa | 30000 kPa | 35000 kPa | 40000 kPa
288.15 K | 1076.83 | 1081.15 | 1085.32 | 1089.52 | 1093.35 | 1096.99 | 1100.63 | 1104.08 | 1107.4
293.15 K | 1070.06 | 1074.62 | 1078.93 | 1083.01 | 1087.08 | 1091.03 | 1094.75 | 1098.34 | 1101.84
298.15 K | 1063.45 | 1068 | 1072.51 | 1076.72 | 1080.9 | 1084.89 | 1088.82 | 1092.44 | 1096.04
303.15 K | 1056.61 | 1061.47 | 1066.02 | 1070.49 | 1074.79 | 1078.99 | 1082.9 | 1086.6 | 1090.4
308.15 K | 1049.91 | 1054.84 | 1059.69 | 1064.3 | 1068.73 | 1073 | 1077.1 | 1080.78 | 1084.38

CCO [ethanol]
mass density [kg/m3], [1]
Conditions | 100 kPa | 5000 kPa | 10000 kPa | 15000 kPa | 20000 kPa | 25000 kPa | 30000 kPa | 35000 kPa | 40000 kPa
288.15 K | 794.39 | 798.18 | 802.2 | 806.02 | 809.69 | 812.95 | 816.23 | 819.12 | 822.29
293.15 K | 789.87 | 793.83 | 797.88 | 801.84 | 805.45 | 809.12 | 812.52 | 815.8 | 818.81
298.15 K | 785.59 | 789.72 | 793.76 | 797.75 | 801.4 | 805.07 | 808.47 | 811.58 | 815.03
303.15 K | 781.19 | 785.47 | 789.66 | 793.71 | 797.54 | 801.26 | 804.81 | 808.29 | 811.43
308.15 K | 776.6 | 780.98 | 785.42 | 789.62 | 793.63 | 797.42 | 801.06 | 804.6 | 808.06

CCO [ethanol] + COC(=O)OC
mass density [kg/m3], [2]
Conditions | 100 kPa | 5000 kPa | 10000 kPa | 15000 kPa | 20000 kPa | 25000 kPa | 30000 kPa | 35000 kPa | 40000 kPa
288.15 K | 794.39 | 798.18 | 802.2 | 806.02 | 809.69 | 812.95 | 816.23 | 819.12 | 822.29
293.15 K | 789.87 | 793.83 | 797.88 | 801.84 | 805.45 | 809.12 | 812.52 | 815.8 | 818.81
298.15 K | 785.59 | 789.72 | 793.76 | 797.75 | 801.4 | 805.07 | 808.47 | 811.58 | 815.03
303.15 K | 781.19 | 785.47 | 789.66 | 793.71 | 797.54 | 801.26 | 804.81 | 808.29 | 811.43
308.15 K | 776.6 | 780.98 | 785.42 | 789.62 | 793.63 | 797.42 | 801.06 | 804.6 | 808.06

CO [methanol]
mass density [kg/m3], [1]
Conditions | 100 kPa | 5000 kPa | 10000 kPa | 15000 kPa | 20000 kPa | 25000 kPa | 30000 kPa | 35000 kPa | 40000 kPa
288.15 K | 796.19 | 800.57 | 804.93 | 808.85 | 812.92 | 816.56 | 820.09 | 823.62 | 827.04
293.15 K | 791.18 | 795.97 | 800.47 | 804.52 | 808.43 | 812.34 | 815.93 | 819.32 | 822.48
298.15 K | 786.76 | 791.52 | 795.8 | 800.13 | 804.18 | 808.04 | 811.69 | 815.2 | 818.33
303.15 K | 782.07 | 786.79 | 791.31 | 795.85 | 800.16 | 804.08 | 807.78 | 811.31 | 814.7
308.15 K | 777.09 | 781.85 | 786.63 | 791.23 | 795.58 | 799.85 | 803.73 | 807.42 | 811.08

CO [methanol] + COC(=O)OC
mass density [kg/m3], [2]
Conditions | 100 kPa | 5000 kPa | 10000 kPa | 15000 kPa | 20000 kPa | 25000 kPa | 30000 kPa | 35000 kPa | 40000 kPa
288.15 K | 796.19 | 800.57 | 804.93 | 808.85 | 812.92 | 816.56 | 820.09 | 823.62 | 827.04
293.15 K | 791.18 | 795.97 | 800.47 | 804.52 | 808.43 | 812.34 | 815.93 | 819.32 | 822.48
298.15 K | 786.76 | 791.52 | 795.8 | 800.13 | 804.18 | 808.04 | 811.69 | 815.2 | 818.33
303.15 K | 782.07 | 786.79 | 791.31 | 795.85 | 800.16 | 804.08 | 807.78 | 811.31 | 814.7
308.15 K | 777.09 | 781.85 | 786.63 | 791.23 | 795.58 | 799.85 | 803.73 | 807.42 | 811.08

CCCO [propan-1-ol]
mass density [kg/m3], [1]
Conditions | 100 kPa | 5000 kPa | 10000 kPa | 15000 kPa | 20000 kPa | 25000 kPa | 30000 kPa | 35000 kPa | 40000 kPa
288.15 K | 807.62 | 811.32 | 814.7 | 817.95 | 821.27 | 824.24 | 827.24 | 830.04 | 832.73
293.15 K | 803.57 | 807.24 | 810.8 | 814.22 | 817.46 | 820.74 | 823.7 | 826.5 | 829.09
298.15 K | 799.61 | 803.49 | 807.15 | 810.5 | 813.78 | 816.92 | 820.04 | 822.87 | 825.81
303.15 K | 795.62 | 799.57 | 803.13 | 806.69 | 810.14 | 813.48 | 816.64 | 819.75 | 822.6
308.15 K | 791.31 | 795.4 | 799.21 | 802.79 | 806.37 | 809.72 | 813.03 | 816.12 | 819.06

CCCO [propan-1-ol] + COC(=O)OC
mass density [kg/m3], [2]
Conditions | 100 kPa | 5000 kPa | 10000 kPa | 15000 kPa | 20000 kPa | 25000 kPa | 30000 kPa | 35000 kPa | 40000 kPa
288.15 K | 807.62 | 811.32 | 814.7 | 817.95 | 821.27 | 824.24 | 827.24 | 830.04 | 832.73
293.15 K | 803.57 | 807.24 | 810.8 | 814.22 | 817.46 | 820.74 | 823.7 | 826.5 | 829.09
298.15 K | 799.61 | 803.49 | 807.15 | 810.5 | 813.78 | 816.92 | 820.04 | 822.87 | 825.81
303.15 K | 795.62 | 799.57 | 803.13 | 806.69 | 810.14 | 813.48 | 816.64 | 819.75 | 822.6
308.15 K | 791.31 | 795.4 | 799.21 | 802.79 | 806.37 | 809.72 | 813.03 | 816.12 | 819.06
